Data taken from US11035850B2, “Quantitative determination of nucleoside analogue drugs in genomic DNA or RNA” (THE JOHNS HOPKINS UNIVERSITY, priority 2016, dated 2021).

How the values were obtained:
[1] = Stability of DAC, 2dC, and 5mC (LC-MS/MS); assay type: physicochemical; conditions: for Digest Buffers Stability (−70° C.) (35 Days) (%): digest buffer; for Stock Stability (27 Days) (%): Stock solution in water 1 mg/mL, −20° C. printed for DAC only
Description: (§1) Standards and quality control (QCs) samples were prepared by adding known concentrations of analytes into blank digest matrix (all solvents used during the DNA digest except for the enzymes). All digested DNA samples, standards and QCs were prepared for analysis by adding 20 μL internal standard (5AC-^15N4, 2dC-^13C^15N2 and 5mC-d3 in water) to 100 μL of sample and vortex-mix briefly. The internal standard in the range of 5 μL, 10 μL, or 15 μL to 20 μL, 25 μL, 30 μL, or 35 μL could be added to a sample. The sample could be in the range of 85 μL, 90 μL, or 95 μL to 100 μL, 105 μL, 110 μL, or 110 μL. The samples were injected onto a LC-MS system containing a Waters Acquity UPLC (Milford, Mass.) interfaced with an AB Sciex 5500 triple quadruple mass spectrometer (Foster City, Calif.). Chromatographic separation was achieved using Thermo Hypercarb porous graphite analytical column (100×2.1 mm, 5 μm, Waltham, Mass.) running isocratic with 10 mM ammonium acetate-acetonitrile-formic acid (70:30:0.1, v/v) with a flow rate of […]. The mass spectrometer was run in positive electrospray ionization mode with follow MRM transitions: DAC: 228.9→113.0, 2dC: 228.0→112.0, 5mC: 242.0→126.0, 5AC-^15N4 (internal standard): 249.0→117.0, 2dC-^13C^15N2 (internal standard) 230.8→115.0 and 5mC-d3 (internal standard) 245.8→129.0. The calibration range was 2-400 ng/mL for DAC, 5-1,000 ng/mL for 5mC, and 50-10,000 ng/mL for 2dC. All analytes were quantified using quadratic regression with 1/x^2 weighing.
A LC-MS/MS method was developed and validated to determine DAC, 2dC, and 5mC concentrations in DNA digest matrix (FIGS. 1-3). No major interferences were observed from blank matrix (FIGS. 1 and 2). Samples can be stored as the single dephosphorylated nucleotides for up to 35 days. The method has been applied in vitro to untreated (FIG. 4) and DAC treated cells (FIG. 5).

[2] = system: DU145 human prostate cancer cells; test: DAC incorporation into genomic DNA of DU145 cells (LC-MS/MS); assay type: cell-based
Description: (§2) Genomic DNA was suspended in 50 μL of HPLC grade water, and digested with 4 Units of Nuclease P1 (Sigma Aldrich) at 65° C. for 10 minutes in a digestion buffer containing 0.04 mM DFAM, 3.25 mM ammonium acetate pH 5.0, 0.5 mM zinc chloride in a final volume of 100 μL. 20 μL of 100 mM Trizma base, pH 8.5 was added and this reaction was treated with 4 Units of Alkaline Phosphatase at 37° C. for 1 hour. Following incubation, 20 μL of 300 mM ammonium acetate, pH 5.0 and 6 μL of 0.25 mM DFAM/50 mM ethylenediaminetetraacetic acid was added to stop digestion.
as §1
DU145 prostate cancer cells were cultured in RPMI-1640, supplemented with 5% fetal bovine serum (Invitrogen). DAC was dissolved in DMSO and added to the culture at varying concentrations. The same volume of DMSO was added as a control. Cells were allowed to grow for 48 hr. An independent experiment was performed in three replicates. Following cell harvest, genomic DNA isolation, digestion to single dephosphorylated nucleotides according to our described protocols, DAC and 2dC content were determined using our LC-MS/MS analytical approach.

colon tissue = test: DAC and 5mC content in genomic DNA of colon cells from mice treated with DAC; assay type: in vivo; conditions: DAC 1, 2 or 5 mg/kg intraperitoneal, 10 doses (FIG. 7)
Description: as §2
(§3) Standards and quality control (QCs) samples were prepared by adding known concentrations of analytes into blank digest matrix (all solvents used during the DNA digest except for the enzymes). All digested DNA samples, standards and QCs were prepared for analysis by adding 20 μL internal standard (5AC-^15N4, 2dC-^13C^15N2 and 5mC-d3 in water) to 100 μL of sample and vortex-mix briefly. The internal standard in the range of 5 μL, 10 μL, or 15 μL to 20 μL, 25 μL, 30 μL, or 35 μL could be added to a sample. […] All analytes were quantified using quadratic regression with 1/x^2 weighing. […]
(§4) DAC (1, 2 or 5 mg/kg) (Sigma-Aldrich) or vehicle was administered via daily intraperitoneal injection. […] DAC, 2dC, and 5mC were measured using our LC-MS/MS analytical approach.

whole bone marrow cells = test: DAC and 5mC content in genomic DNA of bone marrow cells from mice treated with DAC; assay type: in vivo; conditions: DAC 1, 2 or 5 mg/kg intraperitoneal, 10 doses (FIG. 7)
Description: as §2, §3, §4

[3] = due to deamination to 5-aza-2′-deoxyuridine; cited from earlier work
[4] = DU145 cells treated with 500 nM DAC (FIG. 5)

Nc1ccn([C@H]2C[C@H](O)[C@@H](CO)O2)c(=O)n1 [2dC, 2′-deoxycytidine]
Reinjection Stability (5 Days) (5° C.) (%) ([1]; High QC): 106.0%
Digest Buffers Stability (−70° C.) (35 Days) (%) ([1]; High QC): 99%
Reinjection Stability (5 Days) (5° C.) (%) ([1]; Low QC): 108.0%
Digest Buffers Stability (−70° C.) (35 Days) (%) ([1]; Low QC): 107.2%
Stock Stability (27 Days) (%) [1]: 98.7%

Nc1ncn([C@H]2C[C@H](O)[C@@H](CO)O2)c(=O)n1 [DAC, 5-aza-2′-deoxycytidine]
Reinjection Stability (5 Days) (5° C.) (%) ([1]; High QC): 92.5%
Digest Buffers Stability (−70° C.) (35 Days) (%) ([1]; High QC): 103.2%
Reinjection Stability (5 Days) (5° C.) (%) ([1]; Low QC): 88.6%
Digest Buffers Stability (−70° C.) (35 Days) (%) ([1]; Low QC): 101.8%
Stock Stability (27 Days) (%) [1]: 94.8%
concentration of 2dC in digested genomic DNA [2, 4]: 1250 ng/mL
concentration of 5mC in digested genomic DNA [2, 4]: 27.4 ng/mL
concentration of DAC in digested genomic DNA [2, 4]: 2.8 ng/mL
amount of DAC per thousand 2dC versus initial treatment dose ([2]; increasing doses of DAC, 48 hours, three replicates (FIG. 6)): strong linear correlation
5mC content (per thousand 2dC) relative to DAC incorporation (colon tissue): inversely correlated with DAC incorporation
DAC incorporation into genomic DNA (DAC per thousand 2dC) (colon tissue): dose responsive increase in incorporation
DAC incorporation into genomic DNA (DAC per thousand 2dC) (whole bone marrow cells): dose responsive increase in incorporation
plasma half-life [3]: 15 to 25 min
